What follows are molecules tested against T1, BTK (Homo sapiens, UniProt Q06187) (assay: BTK cell degradation in Ramos cells (total BTK ELISA)). Conditions: 16 h incubation, FastScan total BTK ELISA.
T1 construct: endogenous in cells; host or cells: Ramos cells
Type: cell-based
Method: Ramos cells are treated with compounds diluted in 0.1% DMSO, dilution is done according to the following protocol: (1) make 1000x stock solution in DMSO from 10 mM by 5-fold dilution, total 7 doses were included; (2) make 10x solution in cell culture medium by transferring 1 ul 1000x stock solution into 99 ul medium; (3) 11 ul of 10× solution is added to cells and incubate for 16 h.
Cells in 96 well plate are harvested by centrifugation (1200 rpm), and wash once with ice-cold PBS. Then, 100 ul 1×cell extraction buffer is added in each well. The cells are placed on a shaker for 20 min at 4° C.; 5 ul lysate is transferred to 45 ul of 1×cell extraction buffer in ELISA plate, and 50 ul of the antibody cocktail is added in each well; seal the plate and incubate 1 hour at room temperature on a plate shaker; medium is discarded from the plate, tap the plated on a paper towel, wash 3×200 ul ELISA wash buffer; add 100 ul of TMB to each well and incubate the plate in the dark for 15 min at room temperature on a shaker; add 100 ul of STOP solution to each well; read absorbance at 450 nm. The BTK ELISA assay was performed using FastScan total BTK ELISA kit (Cell Signaling Cat #36609).

T1 sequence (Q06187 whole entry): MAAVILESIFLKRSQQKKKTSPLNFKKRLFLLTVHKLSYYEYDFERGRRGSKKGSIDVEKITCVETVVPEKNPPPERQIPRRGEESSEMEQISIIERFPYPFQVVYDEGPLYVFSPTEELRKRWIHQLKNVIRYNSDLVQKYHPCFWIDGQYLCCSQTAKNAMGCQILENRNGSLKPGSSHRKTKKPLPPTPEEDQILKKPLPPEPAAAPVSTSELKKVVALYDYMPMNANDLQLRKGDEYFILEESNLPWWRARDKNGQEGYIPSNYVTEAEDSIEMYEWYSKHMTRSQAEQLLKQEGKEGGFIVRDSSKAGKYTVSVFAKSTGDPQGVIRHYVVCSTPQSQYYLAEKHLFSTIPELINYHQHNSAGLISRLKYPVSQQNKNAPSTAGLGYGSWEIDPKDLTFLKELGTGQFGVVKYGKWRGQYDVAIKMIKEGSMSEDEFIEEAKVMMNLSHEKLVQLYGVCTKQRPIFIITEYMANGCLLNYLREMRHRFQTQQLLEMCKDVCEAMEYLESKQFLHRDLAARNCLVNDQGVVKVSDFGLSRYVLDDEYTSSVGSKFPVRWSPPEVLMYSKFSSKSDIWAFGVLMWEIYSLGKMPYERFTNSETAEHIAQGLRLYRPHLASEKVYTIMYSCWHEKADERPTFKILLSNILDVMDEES

SMILES	DC50 [nM]
NC(=O)c1c(-c2ccc(Oc3ccccc3)cc2)nn2c1NCC[C@H]2C1CCN(C(=O)COCCOCCNC(=O)CCN2CCN(c3ccc4c(c3)C(=O)N(C3CCC(=O)NC3=O)C4=O)CC2)CC1 (stereo partly drawn) [Example 28, (7S)-7-(1-(2-(2-(2-(3-(4-(2-(2,6-dioxopiperidin-3-yl)-1,3-dioxoisoindolin-5-yl)piperazin-1-yl)propanamido)ethoxy)ethoxy)acetyl)piperidin-4-yl)-2-(4-phenoxyphenyl)-4,5,6,7-tetrahydropyrazolo[1,5-a]pyrimidine-3-carboxamide]	1480
NC(=O)c1c(-c2ccc(Oc3ccccc3)cc2)nn2c1NCC[C@H]2C1CCN(C(=O)CCc2ccc(N3CCN(c4ccc5c(c4)C(=O)N(C4CCC(=O)NC4=O)C5=O)CC3)cc2)CC1 (stereo partly drawn) [Example 40, (7S)-7-(1-(3-(4-(4-(2-(2,6-dioxopiperidin-3-yl)-1,3-dioxoisoindolin-5-yl)piperazin-1-yl)phenyl)propanoyl)piperidin-4-yl)-2-(4-phenoxyphenyl)-4,5,6,7-tetrahydropyrazolo[1,5-a]pyrimidine-3-carboxamide]	74
NC(=O)c1c(-c2ccc(Oc3ccccc3)cc2)nn2c1NCC[C@H]2C1CCN(C2CCN(Cc3ccc(C(=O)NCCNc4cccc5c4C(=O)N(C4CCC(=O)NC4=O)C5=O)cc3)CC2)CC1 (stereo partly drawn) [Example 43, (7S)-7-(1′-(4-((2-((2-(2,6-dioxopiperidin-3-yl)-1,3-dioxoisoindolin-4-yl)amino)ethyl)carbamoyl)benzyl)-[1, 4′-bipiperidin]-4-yl)-2-(4-phenoxyphenyl)-4,5,6,7-tetrahydropyrazolo[1,5-a]pyrimidine-3-carboxamide]	> 10000
NC(=O)c1c(-c2ccc(Oc3ccccc3)cc2)nn2c1NCC[C@H]2C1CCN(C(=O)CCCc2ccc(N3CCN(c4ccc5c(c4)C(=O)N(C4CCC(=O)NC4=O)C5=O)CC3)cc2)CC1 (stereo partly drawn) [Example 44, (7S)-7-(1-(4-(4-(4-(2-(2,6-dioxopiperidin-3-yl)-1,3-dioxoisoindolin-5-yl)piperazin-1-yl)phenyl)butanoyl)piperidin-4-yl)-2-(4-phenoxyphenyl)-4,5,6,7-tetrahydropyrazolo[1,5-a]pyrimidine-3-carboxamide]	> 10000
NC(=O)c1c(-c2ccc(Oc3ccccc3)cc2)nn2c1NCC[C@H]2C1CCN(C(=O)CCN2CCN(c3ccc(CNC(=O)CNc4cccc5c4CN(C4CCC(=O)NC4=O)C5=O)cc3)CC2)CC1 (stereo partly drawn) [Example 45, (7S)-7-(1-(3-(4-(4-((2-((2-(2,6-dioxopiperidin-3-yl)-1-oxoisoindolin-4-yl)amino)acetamido)methyl)phenyl)piperazin-1-yl)propanoyl)piperidin-4-yl)-2-(4-phenoxyphenyl)-4,5,6,7-tetrahydropyrazolo[1,5-a]pyrimidine-3-carboxamide]	382
CN(C/C=C/C(=O)N1CCC([C@@H]2CCNc3c(C(N)=O)c(-c4ccc(Oc5ccccc5)cc4)nn32)CC1)CCCCCNc1cccc2c1CN(C1CCC(=O)NC1=O)C2=O (stereo partly drawn) [Example 46, (7S)-7-(1-((E)-4-((5-((2-(2,6-dioxopiperidin-3-yl)-1-oxoisoindolin-4-yl)amino)pentyl)(methyl)amino)but-2-enoyl)piperidin-4-yl)-2-(4-phenoxyphenyl)-4,5,6,7-tetrahydropyrazolo[1,5-a]pyrimidine-3-carboxamide]	198
CN(C/C=C/C(=O)N1CCC([C@@H]2CCNc3c(C(N)=O)c(-c4ccc(Oc5ccccc5)cc4)nn32)CC1)CCCCCCNc1cccc2c1CN(C1CCC(=O)NC1=O)C2=O (stereo partly drawn) [Example 47, (7S)-7-(1-((E)-4-((6-((2-(2,6-dioxopiperidin-3-yl)-1-oxoisoindolin-4-yl)amino)hexyl)(methyl)amino)but-2-enoyl)piperidin-4-yl)-2-(4-phenoxyphenyl)-4,5,6,7-tetrahydropyrazolo[1,5-a]pyrimidine-3-carboxamide]	315

Second part, the molecule after the results:

DC50 [nM]	SMILES
> 10000	NC(=O)c1c(-c2ccc(Oc3ccccc3)cc2)nn2c1NCC[C@H]2C1CCN(C(=O)COCCCCCCCCNc2cccc3c2C(=O)N(C2CCC(=O)NC2=O)C3=O)CC1 (stereo partly drawn) [Example 26, (7S)-7-(1-(2-((8-((2-(2,6-dioxopiperidin-3-yl)-1,3-dioxoisoindolin-4-yl)amino)octyl)oxy)acetyl)piperidin-4-yl)-2-(4-phenoxyphenyl)-4,5,6,7-tetrahydropyrazolo[1,5-a]pyrimidine-3-carboxamide]
> 10000	NC(=O)c1c(-c2ccc(Oc3ccccc3)cc2)nn2c1NCC[C@H]2C1CCN(C(=O)COCCOCCOCCOCCNc2cccc3c2C(=O)N(C2CCC(=O)NC2=O)C3=O)CC1 (stereo partly drawn) [Example 27, (7S)-7-(1-(14-((2-(2,6-dioxopiperidin-3-yl)-1,3-dioxoisoindolin-4-yl)amino)-3,6,9, 12-tetraoxatetradecanoyl)piperidin-4-yl)-2-(4-phenoxyphenyl)-4,5,6,7-tetrahydropyrazolo[1,5-a]pyrimidine-3-carboxamide]
458	NC(=O)c1c(-c2ccc(Oc3ccccc3)cc2)nn2c1NCC[C@H]2C1CCN(C(=O)COCCOCCOCCOCCNC(=O)COc2cccc3c2CN(C2CCC(=O)NC2=O)C3=O)CC1 (stereo partly drawn) [Example 29, (7S)-7-(1-(1-((2-(2,6-dioxopiperidin-3-yl)-1-oxoisoindolin-4-yl)oxy)-2-oxo-6,9, 12, 15-tetraoxa-3-azaheptadecan-17-oyl)piperidin-4-yl)-2-(4-phenoxyphenyl)-4,5,6,7-tetrahydropyrazolo[1,5-a]pyrimidine-3-carboxamide]
> 10000	NC(=O)c1c(-c2ccc(Oc3ccccc3)cc2)nn2c1NCC[C@H]2C1CCN(C(=O)CCCCNc2cccc3c2C(=O)N(C2CCC(=O)NC2=O)C3=O)CC1 (stereo partly drawn) [Example 31, (7S)-7-(1-(5-((2-(2,6-dioxopiperidin-3-yl)-1,3-dioxoisoindolin-4-yl)amino)pentanoyl)piperidin-4-yl)-2-(4-phenoxyphenyl)-4,5,6,7-tetrahydropyrazolo[1,5-a]pyrimidine-3-carboxamide]
> 10000	NC(=O)c1c(-c2ccc(Oc3ccccc3)cc2)nn2c1NCC[C@H]2C1CCN(C(=O)CCCNc2cccc3c2C(=O)N(C2CCC(=O)NC2=O)C3=O)CC1 (stereo partly drawn) [Example 32, (7S)-7-(1-(4-((2-(2,6-dioxopiperidin-3-yl)-1,3-dioxoisoindolin-4-yl)amino)butanoyl)piperidin-4-yl)-2-(4-phenoxyphenyl)-4,5,6,7-tetrahydropyrazolo[1,5-a]pyrimidine-3-carboxamide]
1890	NC(=O)c1c(-c2ccc(Oc3ccccc3)cc2)nn2c1NCC[C@H]2C1CCN(C(=O)CCCNC(=O)COCCOCCOCCOCCNc2cccc3c2C(=O)N(C2CCC(=O)NC2=O)C3=O)CC1 (stereo partly drawn) [Example 34, (7S)-7-(1-(1-((2-(2,6-dioxopiperidin-3-yl)-1,3-dioxoisoindolin-4-yl)amino)-14-oxo-3,6,9, 12-tetraoxa-15-azanonadecan-19-oyl)piperidin-4-yl)-2-(4-phenoxyphenyl)-4,5,6,7-tetrahydropyrazolo[1,5-a]pyrimidine-3-carboxamide]
326	NC(=O)c1c(-c2ccc(Oc3ccccc3)cc2)nn2c1NCC[C@H]2C1CCN(C(=O)COCCOCCNC(=O)CCCCN2CCN(c3ccc4c(c3)C(=O)N(C3CCC(=O)NC3=O)C4=O)CC2)CC1 (stereo partly drawn) [Example 35, (7S)-7-(1-(2-(2-(2-(5-(4-(2-(2,6-dioxopiperidin-3-yl)-1,3-dioxoisoindolin-5-yl)piperazin-1-yl)pentanamido)ethoxy)ethoxy)acetyl)piperidin-4-yl)-2-(4-phenoxyphenyl)-4,5,6,7-tetrahydropyrazolo[1,5-a]pyrimidine-3-carboxamide]
120	CN(CCOCCNc1cccc2c1C(=O)N(C1CCC(=O)NC1=O)C2=O)CCC(=O)N1CCC([C@@H]2CCNc3c(C(N)=O)c(-c4ccc(Oc5ccccc5)cc4)nn32)CC1 (stereo partly drawn) [Example 37, (7S)-7-(1-(3-((2-(2-((2-(2,6-dioxopiperidin-3-yl)-1,3-dioxoisoindolin-4-yl)amino)ethoxy)ethyl)(methyl)amino)propanoyl)piperidin-4-yl)-2-(4-phenoxyphenyl)-4,5,6,7-tetrahydropyrazolo[1,5-a]pyrimidine-3-carboxamide]
371	CN(CCNc1cccc2c1C(=O)N(C1CCC(=O)NC1=O)C2=O)CCC(=O)N1CCC([C@@H]2CCNc3c(C(N)=O)c(-c4ccc(Oc5ccccc5)cc4)nn32)CC1 (stereo partly drawn) [Example 38, (7S)-7-(1-(3-((2-((2-(2,6-dioxopiperidin-3-yl)-1,3-dioxoisoindolin-4-yl)amino)ethyl)(methyl)amino)propanoyl)piperidin-4-yl)-2-(4-phenoxyphenyl)-4,5,6,7-tetrahydropyrazolo[1,5-a]pyrimidine-3-carboxamide]
624	NC(=O)c1c(-c2ccc(Oc3ccccc3)cc2)nn2c1NCC[C@H]2C1CCN(C(=O)COCCOCCNC(=O)CCCN2CCN(c3ccc4c(c3)C(=O)N(C3CCC(=O)NC3=O)C4=O)CC2)CC1 (stereo partly drawn) [Example 42, (7S)-7-(1-(2-(2-(2-(4-(4-(2-(2,6-dioxopiperidin-3-yl)-1,3-dioxoisoindolin-5-yl)piperazin-1-yl)butanamido)ethoxy)ethoxy)acetyl)piperidin-4-yl)-2-(4-phenoxyphenyl)-4,5,6,7-tetrahydropyrazolo[1,5-a]pyrimidine-3-carboxamide]

Reference: patent US20220281876A1, “DEGRADATION OF BRUTON'S TYROSINE KINASE (BTK) BY CONJUGATION OF BTK INHIBITORS WITH E3 LIGASE LIGAND AND METHODS OF USE” (BEIGENE, LTD., priority 2019, published 2022)
